For assay [1], the target named is T1, α9 nAChR (Homo sapiens, UniProt Q9UGM1).
T1 construct: expressed in transfected cells; host or cells: Xenopus laevis oocytes, injected with in vitro transcribed RNA
Kind of assay: Two-electrode voltage-clamp, agonist concentration-response, α9 nAChR in Xenopus oocytes. In kind it is cell-based. The source says:
(§1) Electrophysiology: Xenopus oocytes were microinjected with RNAs to produce functional nAChR which were characterized by two-electrode voltage-clamp measurements. FIGS. 5A-7D present concentration-response curves for the new compounds evaluated with α7, α9, and α9α10 receptors. Table 1 presents the values for Imax and EC50 with these receptors and Table 2 summarizes inhibition data for the compounds with heteromeric nAChR.
(§2) Molecular Biology: Plasmid DNAs encoding the human α7 and heteromeric nAChR were obtained from Jon Lindstrom (University of Pennsylvania, Philadelphia, PA). Mouse muscle subunit clones were obtained from Jim Boulter (Salk Institute, La Jolla CA) and Paul Gardner (Dartmouth, Hanover NH). The human resistance-to-cholinesterase 3 ([…]) clone was obtained from Millet Treinin (Hebrew University, Jerusalem, Israel) and RNA co-injected with α7 to improve the level and speed of receptor expression without affecting their pharmacological properties. Plasmid DNA encoding the human α10 nAChR was obtained from J. Michael McIntosh. Plasmid DNA encoding the human α9 nAChR and the human receptor-associated protein of the synapse (RAPSYN) with codon optimization for expression in Xenopus laevis were obtained from Katrin Richter. RAPSYN RNA was co-injected with the α9 and α10 to improve expression (Richter et al., (2022) Front. Cell Neurosci. 16: 779081). After linearization and purification of the plasmid DNAs, RNAs were prepared using the mMessage mMachine in vitro RNA transcription kit (Ambion, Austin, TX). Frogs were maintained in the Animal Care Service facility of the University of Florida, and all procedures were approved by the University of Florida Institutional Animal Care and Use Committee (approval number 202002669). In brief, the animals were first anesthetized for 15-20 min in 1.5 l frog tank water containing 1 g of MS-222 buffered with sodium bicarbonate. Oocytes were obtained surgically from mature female Xenopus laevis (Nasco, Ft. Atkinson WI, USA) and treated with 1.4 mg/ml type 1 collagenase (Worthington Biochemicals, Freehold NJ, USA) for 2-4 h at rt in Ca2+-free Barth's solution (88 mM NaCl, 1 mM KCl, 2.38 mM NaHCO3, 0.82 mM MgSO4, 15 mM HEPES, and 12 mg/l tetracycline, pH 7.6) to remove the ovarian tissue and the follicular layers. Stage V oocytes were injected with 4-6 ng CHRNA7 RNA and 2-3 ng RIC3 RNA (2:1 ratio) in 50 nl water, or with 12 ng CHRNA9 RNA and 3 ng RAPSN RNA, or along with 12 ng CHRNA10 RNA in 50 nl water. Oocytes were maintained in Barth's solution containing 0.32 mM Ca(NO3)2 and 0.41 mM CaCl2, and recordings were conducted 2-20 days after injection.
(§3) Electrophysiology: Two-electrode voltage-clamp experiments were conducted using OpusXpress 6000A (Molecular Devices, Union City CA, USA). Both the voltage and current electrodes were filled with 3 M KCl. Oocytes were voltage-clamped at −60 mV at rt. The oocytes were perfused with Ringer's solution (115 mM NaCl, 2.5 mM KCl, 1.8 mM CaCl2, 10 mM HEPES, 1 μM atropine, pH 7.2) at 2 ml/min. […] Drug applications were 12 s in duration followed by 181 s washout periods.
(§4) The responses were calculated as both peak-current amplitudes and net charge. Data were collected at 50 Hz, filtered at 20 Hz, and analyzed by Clampfit (Molecular Devices) and Excel (Microsoft, Redmond, WA, United States). Data are expressed as means±SEM from at least five oocytes for each experiment and plotted with Kaleidagraph 4.5.2 (Abelbeck Software, Reading, PA, United States). Each episode of data acquisition was a total of 210 s and included an initial 30 s period used to define the baseline for the drug-evoked responses. After 30 s, drugs were applied, and the following 120 s were defined as the drug response period for analysis. […] The values for the curve fits were generated using the Levenberg-Marquardt algorithm to obtain the best Chi-Square fit to the Hill equation using the Kaleidagraph 4.5.2 plotting program. […]
For orientation: Two-electrode voltage clamp holds a large cell at a set potential and records current.

For assay [2], the target named is T2, α7 nAChR (Homo sapiens, UniProt P36544).
T2 construct: expressed in transfected cells; host or cells: Xenopus laevis oocytes, injected with in vitro transcribed RNA
Kind of assay: Two-electrode voltage-clamp, agonist concentration-response, α7 nAChR in Xenopus oocytes. The format is cell-based.
Description: as §1
(§5) Molecular Biology: Plasmid DNAs encoding the human α7 and heteromeric nAChR were obtained from Jon Lindstrom (University of Pennsylvania, Philadelphia, PA). Mouse muscle subunit clones were obtained from Jim Boulter (Salk Institute, La Jolla CA) and Paul Gardner (Dartmouth, Hanover NH). […] Plasmid DNA encoding the human α10 nAChR was obtained from J. Michael McIntosh. Plasmid DNA encoding the human α9 nAChR and the human receptor-associated protein of the synapse (RAPSYN) with codon optimization for expression in Xenopus laevis were obtained from Katrin Richter. […] After linearization and purification of the plasmid DNAs, RNAs were prepared using the mMessage mMachine in vitro RNA transcription kit (Ambion, Austin, TX). […] Oocytes were maintained in Barth's solution containing 0.32 mM Ca(NO3)2 and 0.41 mM CaCl2, and recordings were conducted 2-20 days after injection.
(§6) Electrophysiology: Two-electrode voltage-clamp experiments were conducted using OpusXpress 6000A (Molecular Devices, Union City CA, USA). Both the voltage and current electrodes were filled with 3 M KCl. Oocytes were voltage-clamped at −60 mV at rt.
(§7) The responses were calculated as both peak-current amplitudes and net charge. Data were collected at 50 Hz, filtered at 20 Hz, and analyzed by Clampfit (Molecular Devices) and Excel (Microsoft, Redmond, WA, United States). Data are expressed as means±SEM from at least five oocytes for each experiment and plotted with Kaleidagraph 4.5.2 (Abelbeck Software, Reading, PA, United States). Each episode of data acquisition was a total of 210 s and included an initial 30 s period used to define the baseline for the drug-evoked responses. After 30 s, drugs were applied, and the following 120 s were defined as the drug response period for analysis. […] The values for the curve fits were generated using the Levenberg-Marquardt algorithm to obtain the best Chi-Square fit to the Hill equation using the Kaleidagraph 4.5.2 plotting program. The errors in the tables are the calculated standard errors of the fit parameters based on the goodness of fit.

The target of assay [3] is T3, α9α10 nAChR (Homo sapiens, UniProt Q9GZZ6+Q9UGM1).
T3 construct: expressed in transfected cells; host or cells: Xenopus laevis oocytes, injected with in vitro transcribed RNA
The settings on record: relative to ACh (Imax = 1); data taken from Papke et al. (2022); cited from earlier work.

The target of assay [4] is T1, α9 nAChR. The settings on record: earlier reports / Papke et al. (2022), Richter et al. (2022); cited from earlier work.
Assay [5] deals with T2, α7 nAChR. Particulars: cited from earlier work; for Agonist character at α7: earlier reports / Papke et al. (2022).
Assay [6] addresses T4, α1β1εδ nAChR (Mus musculus, UniProt P02716+P04756+P09690+P20782).
T4 construct: expressed in transfected cells; host or cells: Xenopus laevis oocytes
Briefly: Inhibition of control ACh responses by co-application, muscle α1β1εδ nAChR in oocytes. The format is cell-based. The settings on record: 3 μM compound co-applied with ACh; fraction of control ACh response. As to the method:
(§8) Initial profiling against heteromeric receptors: The test compounds for their ability to activate or inhibit other nAChR subtypes were evaluated. Agonist activity was evaluated by applying the compounds at 100 or 30 μM to human α4β2 and α3β4 as well as to mouse muscle α1β1εδ nAChR expressed in Xenopus oocytes. […] The inhibitory activity was generally low (Table 3).
as §2, §3, §7

Assay [7] concerns the target T2, α7 nAChR. Kind of assay: α7 responses to drugs co-applied with the PAM PNU-120596 (silent agonism). The format is cell-based.
Description: as §5, §6, §7

Assay [8] deals with T3, α9α10 nAChR. Briefly: Two-electrode voltage-clamp, agonist concentration-response, α9α10 nAChR in Xenopus oocytes. In kind it is cell-based.
Description: as §1, §2, §3, §4

The target of assay [9] is T5, α4β2 nAChR (Homo sapiens, UniProt P17787+P43681).
T5 construct: expressed in transfected cells; host or cells: Xenopus laevis oocytes
Kind of assay: Inhibition of control ACh responses by co-application, α4β2 nAChR in oocytes. Particulars: 3 μM compound co-applied with ACh; fraction of control ACh response. In kind it is cell-based. The method, then:
as §8, §2, §3, §7

In assay [10] the target is T6, α3β4 nAChR (Homo sapiens, UniProt P30926+P32297).
T6 construct: expressed in transfected cells; host or cells: Xenopus laevis oocytes
Briefly: Inhibition of control ACh responses by co-application, α3β4 nAChR in oocytes. The format is cell-based. Particulars: 3 μM compound co-applied with ACh; fraction of control ACh response. The method, then:
as §8, §2, §3, §7

Setting [11] is: peak currents, ± standard error of fit.
The mark [12] stands for this setting: relative to ACh (Imax = 1), peak currents, ± standard error of fit.

Each structure is given as a SMILES string. Values joined by “and” are separate entries in the source; they are usually repeats but may differ in a detail not shown here. Equal values may be shown once. “Also recorded” adds a separate entry of the source. Read-outs that look alike come from different tables or passages of the source.

Broadly, the EC50 is the concentration giving half of the maximal effect.

T1 sequence (Q9UGM1 26-479 limits assumed): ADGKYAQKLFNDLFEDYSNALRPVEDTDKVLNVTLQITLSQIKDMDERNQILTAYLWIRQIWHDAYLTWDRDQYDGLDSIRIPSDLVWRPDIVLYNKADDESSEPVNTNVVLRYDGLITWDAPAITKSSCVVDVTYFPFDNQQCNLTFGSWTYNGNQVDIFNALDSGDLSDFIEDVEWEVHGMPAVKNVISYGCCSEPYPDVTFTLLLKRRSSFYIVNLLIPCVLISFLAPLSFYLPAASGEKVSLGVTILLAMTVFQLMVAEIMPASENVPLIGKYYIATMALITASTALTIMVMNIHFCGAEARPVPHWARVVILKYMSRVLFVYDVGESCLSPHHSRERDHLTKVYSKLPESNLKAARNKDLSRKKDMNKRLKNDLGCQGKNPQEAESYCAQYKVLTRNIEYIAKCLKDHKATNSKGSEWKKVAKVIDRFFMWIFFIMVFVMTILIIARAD
T3 sequence (Q9UGM1 26-479 limits assumed): as above
T3 sequence (Q9GZZ6 25-450): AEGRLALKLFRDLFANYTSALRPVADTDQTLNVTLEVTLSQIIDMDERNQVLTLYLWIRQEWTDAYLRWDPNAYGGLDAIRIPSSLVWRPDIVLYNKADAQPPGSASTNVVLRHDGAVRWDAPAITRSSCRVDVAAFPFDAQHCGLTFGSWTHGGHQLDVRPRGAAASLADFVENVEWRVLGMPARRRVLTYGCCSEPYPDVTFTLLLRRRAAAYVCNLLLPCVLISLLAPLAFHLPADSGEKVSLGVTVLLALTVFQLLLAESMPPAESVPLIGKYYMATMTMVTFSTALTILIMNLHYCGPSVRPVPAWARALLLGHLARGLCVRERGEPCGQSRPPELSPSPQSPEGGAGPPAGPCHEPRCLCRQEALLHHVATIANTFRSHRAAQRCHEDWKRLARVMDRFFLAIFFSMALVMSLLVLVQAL
T2 sequence (P36544 23-502): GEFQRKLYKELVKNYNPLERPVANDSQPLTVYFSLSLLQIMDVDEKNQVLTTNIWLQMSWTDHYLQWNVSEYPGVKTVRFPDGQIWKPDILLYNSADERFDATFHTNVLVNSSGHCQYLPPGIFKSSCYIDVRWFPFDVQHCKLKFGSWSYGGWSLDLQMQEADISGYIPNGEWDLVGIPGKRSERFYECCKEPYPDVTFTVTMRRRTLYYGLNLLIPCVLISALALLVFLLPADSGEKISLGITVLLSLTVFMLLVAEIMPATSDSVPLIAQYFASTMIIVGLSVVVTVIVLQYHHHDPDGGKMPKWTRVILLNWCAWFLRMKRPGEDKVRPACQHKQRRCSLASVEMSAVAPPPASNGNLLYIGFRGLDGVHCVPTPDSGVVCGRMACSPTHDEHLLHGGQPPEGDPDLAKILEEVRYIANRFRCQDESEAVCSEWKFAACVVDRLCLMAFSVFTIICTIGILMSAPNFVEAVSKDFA
T4 sequence (P04756 21-457): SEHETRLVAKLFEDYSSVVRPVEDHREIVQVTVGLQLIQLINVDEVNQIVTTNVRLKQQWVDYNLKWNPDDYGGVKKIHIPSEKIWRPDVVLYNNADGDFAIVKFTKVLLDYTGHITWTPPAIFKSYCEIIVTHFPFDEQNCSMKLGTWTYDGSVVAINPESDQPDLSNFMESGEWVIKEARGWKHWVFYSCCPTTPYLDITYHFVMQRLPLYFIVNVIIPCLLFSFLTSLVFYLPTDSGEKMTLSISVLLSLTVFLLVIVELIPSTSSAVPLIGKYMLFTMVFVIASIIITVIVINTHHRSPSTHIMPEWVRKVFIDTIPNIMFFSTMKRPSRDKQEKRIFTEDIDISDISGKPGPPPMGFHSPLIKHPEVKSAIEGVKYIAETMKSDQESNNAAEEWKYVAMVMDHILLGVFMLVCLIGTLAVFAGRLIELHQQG
T4 sequence (P09690 24-501): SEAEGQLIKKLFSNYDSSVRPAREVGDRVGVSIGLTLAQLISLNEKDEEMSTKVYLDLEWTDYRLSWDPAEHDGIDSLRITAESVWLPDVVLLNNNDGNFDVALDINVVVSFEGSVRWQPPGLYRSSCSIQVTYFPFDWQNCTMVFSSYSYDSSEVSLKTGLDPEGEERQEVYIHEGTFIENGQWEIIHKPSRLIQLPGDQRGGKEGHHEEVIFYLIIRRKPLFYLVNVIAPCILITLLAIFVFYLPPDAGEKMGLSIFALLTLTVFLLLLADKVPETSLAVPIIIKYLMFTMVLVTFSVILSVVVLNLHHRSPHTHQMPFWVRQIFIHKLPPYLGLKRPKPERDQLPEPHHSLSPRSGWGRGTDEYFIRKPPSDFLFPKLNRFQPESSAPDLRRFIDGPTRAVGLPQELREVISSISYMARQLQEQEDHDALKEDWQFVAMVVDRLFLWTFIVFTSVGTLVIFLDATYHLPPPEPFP
T4 sequence (P20782 21-493): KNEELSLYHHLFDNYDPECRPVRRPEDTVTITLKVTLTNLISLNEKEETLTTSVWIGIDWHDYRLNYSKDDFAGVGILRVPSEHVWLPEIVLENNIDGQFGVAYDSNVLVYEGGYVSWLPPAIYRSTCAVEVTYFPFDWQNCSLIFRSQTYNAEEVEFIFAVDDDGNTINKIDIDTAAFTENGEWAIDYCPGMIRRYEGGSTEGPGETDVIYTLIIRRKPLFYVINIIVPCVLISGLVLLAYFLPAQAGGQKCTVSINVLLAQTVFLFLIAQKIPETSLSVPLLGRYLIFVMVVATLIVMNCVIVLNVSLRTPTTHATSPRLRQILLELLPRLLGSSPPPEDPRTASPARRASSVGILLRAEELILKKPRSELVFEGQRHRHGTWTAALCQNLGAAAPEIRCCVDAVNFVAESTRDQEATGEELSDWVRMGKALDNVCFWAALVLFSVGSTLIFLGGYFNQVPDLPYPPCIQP
T4 sequence (P02716 25-520): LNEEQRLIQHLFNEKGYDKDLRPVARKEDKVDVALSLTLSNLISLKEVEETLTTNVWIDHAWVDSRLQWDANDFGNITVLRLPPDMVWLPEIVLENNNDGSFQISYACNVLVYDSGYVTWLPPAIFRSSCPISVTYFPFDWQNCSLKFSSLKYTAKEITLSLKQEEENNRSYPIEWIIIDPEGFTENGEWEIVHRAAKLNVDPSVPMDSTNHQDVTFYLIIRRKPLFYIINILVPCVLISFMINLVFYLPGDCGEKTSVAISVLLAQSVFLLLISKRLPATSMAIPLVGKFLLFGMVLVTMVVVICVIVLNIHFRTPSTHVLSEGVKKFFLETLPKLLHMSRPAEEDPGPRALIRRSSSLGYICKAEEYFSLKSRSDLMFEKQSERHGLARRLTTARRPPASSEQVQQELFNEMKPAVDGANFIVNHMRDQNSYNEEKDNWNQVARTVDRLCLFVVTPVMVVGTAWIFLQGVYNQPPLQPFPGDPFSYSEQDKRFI
T5 sequence (P43681 29-627 limits assumed): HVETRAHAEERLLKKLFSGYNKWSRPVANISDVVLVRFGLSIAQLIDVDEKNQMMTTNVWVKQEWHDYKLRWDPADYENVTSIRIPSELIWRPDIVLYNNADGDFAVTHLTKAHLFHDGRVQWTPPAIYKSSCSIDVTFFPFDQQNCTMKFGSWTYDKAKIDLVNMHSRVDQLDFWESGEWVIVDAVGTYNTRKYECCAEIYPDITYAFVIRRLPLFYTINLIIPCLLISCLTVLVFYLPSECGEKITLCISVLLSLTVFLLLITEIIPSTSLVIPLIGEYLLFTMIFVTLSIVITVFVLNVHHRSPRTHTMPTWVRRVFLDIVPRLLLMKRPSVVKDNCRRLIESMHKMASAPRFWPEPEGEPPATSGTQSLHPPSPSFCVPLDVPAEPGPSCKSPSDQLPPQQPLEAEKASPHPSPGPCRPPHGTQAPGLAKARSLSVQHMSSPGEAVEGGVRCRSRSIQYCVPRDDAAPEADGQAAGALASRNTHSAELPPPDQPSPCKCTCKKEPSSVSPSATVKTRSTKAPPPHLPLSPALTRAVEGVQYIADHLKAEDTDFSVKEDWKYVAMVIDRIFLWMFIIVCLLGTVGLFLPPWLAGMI
T5 sequence (P17787 26-502): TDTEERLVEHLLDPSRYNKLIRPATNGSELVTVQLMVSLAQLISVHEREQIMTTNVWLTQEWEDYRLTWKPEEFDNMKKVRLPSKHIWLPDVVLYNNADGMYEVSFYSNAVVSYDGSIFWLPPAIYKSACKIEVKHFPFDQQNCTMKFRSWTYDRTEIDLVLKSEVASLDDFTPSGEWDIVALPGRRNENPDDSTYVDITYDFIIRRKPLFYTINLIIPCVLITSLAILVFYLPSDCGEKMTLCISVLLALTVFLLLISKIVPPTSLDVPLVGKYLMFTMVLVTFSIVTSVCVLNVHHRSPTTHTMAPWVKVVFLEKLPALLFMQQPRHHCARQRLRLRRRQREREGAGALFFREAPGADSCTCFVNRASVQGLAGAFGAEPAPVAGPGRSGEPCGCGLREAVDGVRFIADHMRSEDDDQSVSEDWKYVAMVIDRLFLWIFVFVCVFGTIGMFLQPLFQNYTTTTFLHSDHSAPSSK

Regarding `CC[N+]1(CC)CCN(c2ccc(C(=O)Nc3cccc(C)n3)cc2)CC1.[I-]` [Compound 2, 1,1-diethyl-4-(4-((6-methylpyridin-2-yl)carbamoyl)phenyl)piperazin-1-ium iodide], the “Agonist character / efficacy at α9” value in assay [1] was “full agonist”. The “Agonist character / efficacy at α7” value in assay [2] is recorded as “partial agonist”. Moreover, in assay [3], the “α9α10 Imax” value is on record as 0.90 ± 0.02. The “Agonist character at α9” value in [4] is reported as “full α9 agonist”. Besides, in assay [5] (data taken from Papke et al. (2022)), the EC50 was 4300 to 6400 nM. The “Agonist character at α7” value in assay [5] is reported as “partial agonists”. In addition, the “α7 Imax” value in assay [5] (relative to ACh (Imax = 1), data taken from Papke et al. (2022)) is listed as 0.40-0.57.
In the case of `CC[N+]1(CC)CCN(c2ccc(-n3cccc3)cc2)CC1.[I-]` [Compound 3i, 4-(4-(1H-pyrrol-1-yl)phenyl)-1,1-diethylpiperazin-1-ium iodide], the “Agonist character / efficacy at α9” value in assay [1] is “reduced efficacy; also recorded: weakened partial agonist”. In addition, the concentration for a half-maximal effect (EC50) in assay [1] (setting [11]) was determined as 1120 ± 250 nM; in assay [8] (setting [11]), 1500 ± 600 nM; in assay [2] (net charge, ± standard error of fit), 27000 ± 4000 nM. The “α9 Imax” value in [1] (setting [12]) turned out to be 0.27 ± 0.01. The “Effect of co-application on the control ACh responses, α1β1εδ” value in [6] stood at 0.691 ± 0.094. In addition, in assay [7] (30 μM compound + 10 μM PNU-120596, relative to ACh alone controls), the “Response co-applied with PNU-120596 relative to the ACh controls” value is on record as around 2 times. In addition, the “Response co-applied with PNU-120596, normalized to ACh co-applied with PNU-120596” value in [7] (drug 30 μM + 10 μM PNU-120596, normalized to 30 μM ACh + 10 μM PNU-120596) came out at 0.08. Besides, the “Agonist character / efficacy at α9α10” value in assay [8] is recorded as “weakened partial agonist”. Also, the “α9α10 Imax” value in [8] (setting [12]) is 0.17 ± 0.01. Besides, the “Agonist character / efficacy at α7” value in assay [2] is listed as “reduced efficacy”. In [2] (relative to ACh (Imax = 1), net charge, ± standard error of fit), the “α7 Imax” value is 0.041 ± 0.002 and 0.041. Moreover, in [9], the “Effect of co-application on the control ACh responses, α4β2” value was found to be 0.709 ± 0.086. In assay [10], the “Effect of co-application on the control ACh responses, α3β4” value came out at 0.387 ± 0.057.
Take `CC[N+]1(CC)CCCCC1` [diE-piperidinium, reference compound]: in assay [5], the “Agonist character at α7” value is given as “silent agonist”.
For the compound `C[N+]1(C)CCCCC1` [diM-piperidinium, reference compound], the “Agonist character at α7” value in [5] was “essentially a full agonist”.
Regarding `CC[N+]1(CC)CCN(c2ccc(C(F)(F)F)cc2)CC1` [pCF3-diEPP, reference compound], the “Agonist character at α9” value in [4] is recorded as “partial agonist”.

Source of the values: patent US12291501B2 (University of Florida Research Foundation, Inc., priority 2021, dated 2025).
